{"source": "patent US20140234375A1", "about": "“Compositions and Methods for Eliciting an Immune Response to Escape Mutants of Targeted Therapies” (priority 2005, published 2014)", "origin": "cited, not measured here", "key": {"[1]": {"tested_on": "HIV gp41", "settings": "valine to alanine at amino acid 38 (V38A)"}, "[2]": {"target": "HCV NS3 serine protease (Hepatitis C virus genotype 1b, UniProt Q9WMX2)", "settings": "in vitro, major resistance mutation"}, "[3]": {"tested_on": "HIV-1 variants", "settings": "by 8 weeks of therapy"}}, "data": [{"compound": "enfuvirtide", "values": [{"measurement": "resistance to enfuvirtide", "setting": "[1]", "result": 45, "unit": "fold"}]}, {"compound": "COc1ccc2c(O[C@@H]3C[C@H]4C(=O)N[C@]5(C(=O)O)C[C@H]5/C=C\\CCCCC[C@H](NC(=O)OC5CCCC5)C(=O)N4C3)cc(-c3csc(NC(C)C)n3)nc2c1", "note": "[BILN 2061]", "values": [{"measurement": "frequency of Ala substitution (D168A) at amino acid 168", "setting": "[2]", "result": 24, "unit": "%"}, {"measurement": "frequency of Val substitution (D168V) at amino acid 168", "setting": "[2]", "result": 64, "unit": "%"}]}, {"compound": "CCC[C@H](NC(=O)[C@@H]1[C@H]2CCC[C@H]2CN1C(=O)[C@@H](NC(=O)[C@@H](NC(=O)c1cnccn1)C1CCCCC1)C(C)(C)C)C(=O)C(=O)NC1CC1", "note": "[VX-950]", "values": [{"measurement": "frequency of Ser substitution (A156S) at amino acid 156", "setting": "[2]; share of samples", "result": 79, "unit": "%"}]}, {"compound": "Cc1ccnc2c1NC(=O)c1cccnc1N2C1CC1", "note": "[Nevirapine, nevirapine]", "values": [{"measurement": "decrease in susceptibility of patient isolates", "setting": "[3]", "result": "greater than 100 fold"}]}]}
